According to patent publication US9572760B2, “Uses of compounds and mixtures from Antrodia cinnamomea mycelia” (Simpson Biotech Co., Ltd., priority 2013, dated 2017):

What was measured:
[1] = system: TGFb1-treated immortalized HSC; assay: Profibrogenic gene expression in immortalized HSC with recombinant TGF-β treatment (qRT-PCR); type: cell-based, human; settings: for Collagen-1 expression / TGF-β expression / TIMP-1 expression / αSMA expression: compounds 72 hours, then TGF-β (3 ng/ml) 48 hours
Excerpt: The AML12 (mouse hepatocyte) cells were obtained from the BCRC (Bioresource Collection and Research Center) and cultured in Dulbecco's modified Eagle media (DMEM, Gibco by Invitrogen) with 1% antibiotic antimycotic (Gibco by Invitrogen) and 15% fetal bovine serum (Gibco by Invitrogen). The human Hepatic Stellate Cell, HSC cell line was obtained from the ScienCell Research Laboratory (USA) and cultured in complete medium, Stellate Cell Medium (ScienCell Research Laboratory) with 2% fetal bovine serum (ScienCell Research Laboratory), 1% stellate cell growth supplement (ScienCell Research Laboratory) and 1% penicillin/streptomycin solution (ScienCell Research Laboratory). […] For primary hepatic stellate cell isolation, C57BL/6 mice were anesthetized by intraperitoneal injection of ketamine and xylazine. […] Mouse livers were perfused in situ with 0.5 mM EGTA containing calcium-free salt solution (8 ml/min, 37° C. for 5 minutes), followed by perfusion with 2-step 0.05% collagenase D and pronase containing buffer (Roche Molecular Biochemicals, Indianapolis, Ind.) for 5 and 10 minutes, respectively. The harvested liver was minced gently on a Petri dish and additional incubation with protease containing buffer at 37° C. for 25 minutes. Then, the liver was filtered with 70 μm cell strainer. Cells were centrifuged and collected followed by 8.2% Nycodenz (Accurate Chemical and Scientific Corp.). The cell lines were cultured at 37° C. in a humidified atmosphere containing 5% CO2.
Exponentially growing cells were harvested and seeded in a 6-well microtiter plate. Each well of cells were collected to eppendrof in 1 mL of TRIzol buffer (Invitrogen, Carlsbad, Calif., USA), and then mixed with 0.5 mL chloroform/isoamyl alcohol (24:1), eppendrofs were centrifuged at 12,000×g for 10 min at 4° C. The supernatant was transferred to a fresh tube, and isopropanol was added, mix well and stored at −80° C. overnight. The reaction mixture was centrifuged at 12,000×g for 30 min at 4° C. to produce a rude RNA pallet, the pellet was washed with 70% ethanol and air-dried. The concentrations of total RNA were measured by absorbance at 260 nm using a NanoDrop ND-1000 (NanoDrop, USA).
Reverse transcription reaction was performed using a commercially available set of High Capacity RNA-to-cDNA Kit (Applied Biosystems, USA). cDNA was prepared from 2 μg of total RNA per 20 μl reaction, according to the manufacturer's instructions—37° C. for 60 minutes, 95° C. for 5 minutes, and hold at 4° C. The resulting cDNA was to a final concentration of 100 ng/μl and constituted a matrix in further experiments.
Amplification and detection the gene expression by real-time PCR were performed using StepOne plus Real-time PCR System (Applied Biosystems, USA). Samples were assayed in a 10 μl reaction mixture containing 2 μl of template DNA, 5 μl of 2× TaqMan PCR Master Mix (Applied Biosystems, Life Technologies, Foster City, Calif., USA), 0.5 μl of 20× assay mix containing probe, forward and reverse primer (Applied Biosystems, Life Technologies, Foster City, Calif., USA), whereby qPCR targets with the following information were used: (a) α-SMA, Assay ID Rn01759928_g1, (b) TIMP-1, Assay ID Rn00587558_m1, (c) TGF-β1, Assay ID Rn00572010_m1, (d) Collagen I, Assay ID Rn 01463838_m1, (e) GAPDH, Assay ID Rn1462662_g1. To control variation in mRNA concentration, all results were normalized to the housekeeping gene, GAPDH. Relative quantitation was performed using the comparative ΔΔCt method according to the manufacturer's instructions. The cycling conditions used were as follows: 50° C. for 2 min, 95° C. for 10 min followed by 40 cycles of 95° C. for 15 s and 60° C. for 1 min each. […]

[2] = system: CuZnSOD, MnSOD, Catalase, Glutathione peroxidase, NADPH oxidase; assay: Real-time RT-PCR of oxidative stress genes (anti-oxidant enzymes, NADPH oxidase) in liver of cirrhotic animals; type: in vivo, Wistar rats; settings: compound B 7 mg/kg, compound C 14 mg/kg, ACM 320 mg/kg
Description: Sample tissues of rat livers were measured about 0.5×0.5 cm in area. Each of tissue was homogenized in 1 mL of TRIzol buffer (Invitrogen, Carlsbad, Calif., USA) with a motorized pestle, and then mixed with 0.5 mL chloroform/isoamyl alcohol (24:1), and was centrifuged at 12,000×g for 10 min at 4° C. The supernatant was transferred to a fresh tube, and isopropanol was added, mix well and stored at −80° C. overnight. The reaction mixture was centrifuged at 12,000×g for 30 min at 4° C. to produce a rude RNA pallet, the pellet was washed with 70% ethanol and air-dried. The concentrations of total RNA were measured by absorbance at 260 nm using a NanoDrop ND-1000 (NanoDrop, USA). Reverse transcription reaction was performed using a commercially available set of High Capacity RNA-to-cDNA Kit (Applied Biosystems, USA). cDNA was prepared from 2 μg of total RNA per 20 μl reaction, according to the manufacturer's instructions—37° C. for 60 minutes, 95° C. for 5 minutes, and hold at 4° C. The resulting cDNA was to a final concentration of 100 ng/μl and constituted a matrix in further experiments. Amplification and detection the gene expression by real-time PCR were performed using StepOne plus Real-time PCR System (Applied Biosystems, USA). Samples were assayed in a 10 μl reaction mixture containing 2 μl of template DNA, 5 μl of 2× TaqMan PCR Master Mix (Applied Biosystems, Life Technologies, Foster City, Calif., USA), 0.5 μl of 20× assay mix containing probe, forward and reverse primer (Applied Biosystems, Life Technologies, Foster City, Calif., USA), whereby qPCR targets with the following information were used: (a) Rat α-SMA, Assay ID Rn01759928_g1, (b) Rat TIMP, Assay ID Rn00587558_m1, (c) Rat TGF-β1, Assay ID Rn00572010_m1, (d) Rat Collagen I, Assay ID Rn 01463838_m1, (e) Rat CuZnSOD, Assay ID Rn00566938_m1, (f) Rat MnSOD, Assay ID Rn00690587_g1, (g) Rat Catalase, Assay ID Rn00560930_m1, (h) Rat Glutathione peroxidase, Assay ID Rn00577994_g1, (i) Rat NADPH oxidase, Assay ID Rn00585380_m1 and (j) Rat GAPDH, Assay ID Rn1462662_g1. To control variation in mRNA concentration, all results were normalized to the housekeeping gene, GAPDH. Relative quantitation was performed using the comparative ΔΔCt method according to the manufacture's instructions. The cycling conditions used were as follows: 50° C. for 2 min, 95° C. for 10 min followed by 40 cycles of 95° C. for 15 s and 60° C. for 1 min each.

| SMILES | anti-fibrosis effect on immortalized HSC in response to TGF-β (summary) [1] | Collagen-1 expression [1] | TGF-β expression [1] | TIMP-1 expression [1] | αSMA expression [1] | Catalase gene expression in liver [2] | CuZnSOD gene expression in liver [2] | Glutathione peroxidase gene expression in liver [2] | MnSOD gene expression in liver [2] | NADPH oxidase gene expression in liver [2] |
| --- | --- | --- | --- | --- | --- | --- | --- | --- | --- | --- |
| CC(C)=CCOc1ccc(C2=C(CC(C)C)C(=O)NC2=O)cc1 [Compound B, 3-isobutyl-4-[4-(3-methyl-2-butenyloxy)phenyl]-1H-pyrrol-2,5-dione] | anti-fibrosis effect | dose-dependent effect | dose-dependent effect | dose-dependent effect | dose-dependent effect | up-regulated significantly | up-regulated significantly | up-regulated significantly | up-regulated significantly | down-regulated significantly |
| CC(C)=CCOc1ccc(C2=C(CC(C)C)C(=O)N(O)C2=O)cc1 [Compound C, 3-isobutyl-4-[4-(3-methyl-2-butenyloxy)phenyl]-1H-pyrrol-1-ol-2,5-dione] | anti-fibrosis effect | dose-dependent effect | dose-dependent effect | dose-dependent effect | dose-dependent effect | up-regulated significantly | up-regulated significantly | up-regulated significantly | up-regulated significantly | down-regulated significantly |
